Results on 19 compounds are retold here after US20200048267A1, “OGA INHIBITOR COMPOUNDS” (Janssen Pharmaceutica NV, priority 2017, published 2020).

One may read the Emax as the maximal effect, on the per cent scale that the assay sets.

Assay [1] has as its target T1, recombinant human Meningioma Expressed Antigen 5 (MGEA5), also referred to as O-GlcNAcase (OGA) (Homo sapiens, UniProt O60502).
T1 construct: Full length OGA enzyme was purchased at OriGene (cat # TP322411); purchased OriGene TP322411
T1 sequence (O60502 1-916): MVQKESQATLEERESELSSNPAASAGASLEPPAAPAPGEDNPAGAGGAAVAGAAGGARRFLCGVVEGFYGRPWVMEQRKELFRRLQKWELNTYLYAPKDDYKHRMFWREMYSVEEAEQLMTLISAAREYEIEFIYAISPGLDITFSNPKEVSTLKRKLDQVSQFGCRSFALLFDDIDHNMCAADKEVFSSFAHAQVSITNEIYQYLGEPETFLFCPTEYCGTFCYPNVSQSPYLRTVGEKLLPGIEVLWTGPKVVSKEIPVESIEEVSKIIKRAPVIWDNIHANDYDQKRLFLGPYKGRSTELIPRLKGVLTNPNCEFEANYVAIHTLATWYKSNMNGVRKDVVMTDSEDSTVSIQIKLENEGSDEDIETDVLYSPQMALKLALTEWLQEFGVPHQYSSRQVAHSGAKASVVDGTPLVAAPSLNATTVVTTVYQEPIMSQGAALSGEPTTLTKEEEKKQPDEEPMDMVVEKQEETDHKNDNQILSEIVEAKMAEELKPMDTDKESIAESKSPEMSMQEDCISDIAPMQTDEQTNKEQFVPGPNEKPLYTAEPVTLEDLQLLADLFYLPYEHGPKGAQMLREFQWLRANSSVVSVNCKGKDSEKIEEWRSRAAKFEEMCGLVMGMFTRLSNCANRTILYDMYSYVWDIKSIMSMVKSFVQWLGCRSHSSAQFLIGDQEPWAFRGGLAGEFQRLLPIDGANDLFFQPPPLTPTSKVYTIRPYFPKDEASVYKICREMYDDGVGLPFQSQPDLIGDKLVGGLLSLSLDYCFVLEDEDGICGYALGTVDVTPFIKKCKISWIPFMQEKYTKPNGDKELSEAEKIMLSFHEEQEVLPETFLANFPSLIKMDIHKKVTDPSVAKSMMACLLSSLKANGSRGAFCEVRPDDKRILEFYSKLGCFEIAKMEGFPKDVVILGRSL
In words: OGA biochemical assay (inhibition of FM-GlcNAc hydrolysis, fluorescence). Particulars: for Emax: read-out: ENZYMATIC Emax (%); for IC50: read-out: ENZYMATIC hOGA, pIC50 (converted). The source says:
The assay is based on the inhibition of the hydrolysis of fluorescein mono-β-D-N-Acetyl-Glucosamine (FM-GlcNAc) (Mariappa et al. 2015, Biochem J 470:255) by the recombinant human Meningioma Expressed Antigen 5 (MGEA5), also referred to as O-GlcNAcase (OGA). The hydrolysis FM-GlcNAc (Marker Gene technologies, cat # M1485) results in the formation of B-D-N-glucosamineacetate and fluorescein. The fluorescence of the latter can be measured at excitation wavelength 485 nm and emission wavelength 538 nm. An increase in enzyme activity results in an increase in fluorescence signal. Full length OGA enzyme was purchased at OriGene (cat # TP322411). The enzyme was stored in 25 mM Tris.HCl, pH 7.3, 100 mM glycine, 10% glycerol at −20° C. Thiamet G and GlcNAcStatin were tested as reference compounds (Yuzwa et al. 2008 Nature Chemical Biology 4:483; Yuzwa et al. 2012 Nature Chemical Biology 8:393). The assay was performed in 200 mM Citrate/phosphate buffer supplemented with 0.005% Tween-20. 35.6 g Na2HPO4 2 H2O (Sigma, # C0759) were dissolved in 1 L water to obtain a 200 mM solution. 19.2 g citric acid (Merck, # 1.06580) was dissolved in 1 L water to obtain a 100 mM solution. pH of the sodium phosphate solution was adjusted with the citric acid solution to 7.2. The buffer to stop the reaction consists of a 500 mM Carbonate buffer, pH 11.0. 734 mg FM-GlcNAc were dissolved in 5.48 mL DMSO to obtain a 250 mM solution and was stored at −20° C. OGA was used at 2 nM concentration and FM-GlcNAc at a 100 uM final concentration. Dilutions were prepared in assay buffer.
50 nl of a compound dissolved in DMSO was dispensed on Black Proxiplate™ 384 Plus Assay plates (Perkin Elmer, #6008269) and 3 μl fl-OGA enzyme mix added subsequently. Plates were pre-incubated for 60 min at room temperature and then 2 μl FM-GlcNAc substrate mix added. […] Plates were briefly centrifuged for 1 min at 1000rpm and incubate at room temperature for 6 h. To stop the reaction 5 μl STOP buffer were added and plates centrifuge again 1 min at 1000 rpm.
Fluorescence was quantified in the Thermo Scientific Fluoroskan Ascent or the PerkinElmer EnVision with excitation wavelength 485 nm and emission wavelength 538 nm.
For analysis a best-fit curve is fitted by a minimum sum of squares method. From this an IC50 value and Hill coefficient was obtained. High control (no inhibitor) and low control (saturating concentrations of standard inhibitor) were used to define the minimum and maximum values.

Another assay has as its target T2, OGA (Homo sapiens, UniProt O60502).
T2 construct: HEK293 cells inducible for P301L mutant human Tau (isoform 2N4R) were established at Janssen; endogenous in cells; host or cells: HEK293 cells inducible for P301L mutant human Tau (2N4R)
T2 sequence (O60502 1-916): T1 sequence (O60502 1-916)
Description: OGA cellular assay (ICC detection of O-GlcNAcylated proteins in HEK293 cells inducible for P301L mutant human Tau). Type of assay: cell-based. Particulars: 6 hours incubation; for EC50: read-out: CELLULAR hOGA, pEC50 (converted). The protocol: HEK293 cells inducible for P301L mutant human Tau (isoform 2N4R) were established at Janssen. Thiamet-G was used for both plate validation (high control) and as reference compound (reference EC50 assay validation). OGA inhibition is evaluated through the immunocytochemical (ICC) detection of O-GlcNAcylated proteins by the use of a monoclonal antibody (CTD110.6; Cell Signaling, #9875) detecting O-GlcNAcylated residues as previously described (Dorfmueller et al. 2010 Chemistry & biology, 17:1250). Inhibition of OGA will result in an increase of O-GlcNAcylated protein levels resulting in an increased signal in the experiment. Cell nuclei are stained with Hoechst to give a cell culture quality control and a rough estimate of immediate compounds toxicity, if any. ICC pictures are imaged with a Perkin Elmer Opera Phenix plate microscope and quantified with the provided software Perkin Elmer Harmony 4.1.
Cells were propagated in DMEM high Glucose (Sigma, #D5796) following standard procedures. 2 days before the cell assay cells are split, counted and seeded in Poly-D-Lysine (PDL) coated 96-wells (Greiner, #655946) plate at a cell density of 12,000 cells per cm^2 (4,000 cells per well) in 100 µl of Assay Medium (Low Glucose medium is used to reduce basal levels of GlcNAcylation) (Park et al. 2014 The Journal of biological chemistry 289:13519). At the day of compound test medium from assay plates was removed and replenished with 90 μl of fresh Assay Medium. 10 μl of compounds at a 10 fold final concentration were added to the wells. Plates were centrifuged shortly before incubation in the cell incubator for 6 hours. DMSO concentration was set to 0.2%. Medium is discarded by applying vacuum. For staining of cells medium was removed and cells washed once with 100 μl D-PBS (Sigma, #D8537). From next step onwards unless other stated assay volume was always 50 μl and incubation was performed without agitation and at room temperature. Cells were fixed in 50 μl of a 4% paraformaldehyde (PFA, Alpha aesar, # 043368) PBS solution for 15 minutes at room temperature. […] Before analysis samples were washed 2 times manually for 5 minutes in ICC base buffer.
Imaging is performed using Perkin Elmer Phenix Opera using a water 20× objective and recording 9 fields per well. Intensity readout at 488 nm is used as a measure of O-GlcNAcylation level of total proteins in wells. To assess potential toxicity of compounds nuclei were counted using the Hoechst staining. IC50-values are calculated using parametric non-linear regression model fitting. As a maximum inhibition Thiamet G at a 200 uM concentration is present on each plate. In addition, a concentration response of Thiamet G is calculated on each plate.

Structures are written as SMILES.

For the compound `CC(=O)Nc1ncc(CN2CCC3(CCN(c4cc(C)cnc4C)C3)C2)s1` (stereo not shown) [Product 50], in assay [1], the Emax turned out to be 101% and the IC50 is 25.1 nM. At OGA, the Emax came out at 87.8% and the EC50 is 186 nM.
Taken in the same sequence, the figures for `Cc1cc(N2CCC3(CCN(C(C)c4ccc5nccnc5c4)C3)C2)cc(C)n1` (single isomer, unassigned) [Product 7] were 98.6%, 72.4 nM, 62.9% and 3800 nM.
For the compound `CC(=O)Nc1ncc(CN2CCC3(CCN(c4cc(C)nc(C)n4)C3)C2)s1` (stereo not shown) [Product 9], in assay [1], the “ENZYMATIC hOGA; pIC50” value came to 7.88 and the Emax is 101%. Further, on OGA, the Emax was found to be 85.4% and the EC50 was 170 nM.
`CC(=O)Nc1ncc(CN2CCC3(CCN(c4cc(C)nc(C)c4)C3)C2)s1` (stereo not shown) [Product 1]: in assay [1], the “ENZYMATIC hOGA; pIC50” value is listed as 8.22 and the Emax was determined as 102%. For the same compound, at OGA, the Emax turned out to be 123% and the EC50 was 141 nM.
Consider `CC(=O)Nc1ncc(CN2CCC3(CCN(c4c(C)cncc4C)C3)C2)s1` (stereo not shown) [Product 60], for which, in assay [1], the Emax is 100% and the IC50 is 52.5 nM. Further, at OGA, the maximal response (Emax) worked out at 88.9% and the EC50 is 148 nM.
For `CC(=O)Nc1ncc(CN2CCC3(CCN(c4cc(C)ncc4C(F)(F)F)C3)C2)s1` (stereo not shown) [Product 34], in assay [1], the “ENZYMATIC hOGA; pIC50” value was found to be 7.44 and the Emax is 102%. On OGA, the Emax was 85.3% and the EC50 was 148 nM.
Take `Cc1cc(N2CCC3(CCN(Cc4ccc5sc(C)nc5c4)C3)C2)nc(C)n1` (stereo not shown) [Product 32]: in assay [1], the Emax came to 102% and the IC50 was 51.3 nM. Further, on OGA, the maximum response (Emax) is 26.3% and the EC50 is above 1000 nM.
On to `CC(=O)Nc1ncc(CN2CCC3(CCN(c4cc(C)ncc4C)C3)C2)s1` (stereo not shown) [Product 39], for which, in assay [1], the “ENZYMATIC hOGA; pIC50” value worked out at 7.87 and the Emax amounted to 101%. At OGA, the Emax amounted to 87.3% and the EC50 is 77.6 nM.
Turning to `CC(=O)Nc1ncc(CN2CCC3(CCN(c4cnc(C)c(C)c4)C3)C2)s1` (stereo not shown) [Product 51], in assay [1], the Emax amounted to 100% and the IC50 is 8.51 nM. At OGA, the Emax was found to be 93% and the EC50 is 123 nM.
Taken in the same sequence, the figures for `Cc1cc(N2CCC3(CCN(C(C)c4ccc5sc(C)nc5c4)C3)C2)cc(C)n1` (stereo not shown) [Product 29] were 101%, 18.2 nM, 74.1% and 380 nM.
With `Cc1cc(N2CCC3(CCN(Cc4ccc5nccnc5c4)C3)C2)nc(C)n1` (stereo not shown) [Product 22], in assay [1], the Emax was determined as 96% and the IC50 is 275 nM. On OGA, the Emax is 12% and the EC50 is above 1000 nM.
With `Cc1cc(N2CCC3(CCN(C(C)c4ccc5scnc5c4)C3)C2)cc(C)n1` (stereo not shown) [Product 36], in assay [1], the Emax was 101% and the IC50 is 24 nM. At OGA, the Emax amounted to 87.9% and the EC50 was 200 nM.
The like results for `Cc1cc(N2CCC3(CCN(Cc4ccc5nccnc5c4)C3)C2)cc(C)n1` (single isomer, unassigned) [Product 4] were, in that order, 98.8%, 224 nM, 23.4% and above 10000 nM.
Taken in the same sequence, the figures for `Cc1cc(N2CCC3(CCN(C(C)c4cnc5c(c4)OCCO5)C3)C2)cc(C)n1` (stereo not shown) [Product 37] were 99%, 182 nM, 20.4% and above 1000 nM.
The like results for `CC(=O)Nc1ncc(CN2CCC3(CCN(c4cc(C)c(C)cn4)C3)C2)s1` (stereo not shown) [Product 61] were, in that order, 102%, 28.2 nM, 94.6% and 117 nM.
Consider `CCc1cc(N2CCC3(CCN(Cc4cnc(NC(C)=O)s4)C3)C2)cc(C)n1` (stereo not shown) [Product 64], for which, in assay [1], the Emax is 101% and the IC50 was 9.12 nM. Moreover, at OGA, the Emax was determined as 62.6% and the EC50 is 251 nM.
Taken in the same sequence, the figures for `CC(=O)Nc1ncc(CN2CCC3(CCN(c4ccnc(C)c4)C3)C2)s1` (stereo not shown) [Product 52] were 100%, 16.2 nM, 73.7% and 209 nM.
In the case of `CC(=O)Nc1ncc(CN2CCC3(CCN(c4cc(C)nc(C)c4)C3)C2)s1` (single isomer, unassigned) [Product 3], in assay [1], the “ENZYMATIC Emax (%)” value came to 100.9% and the IC50 is 3.72 nM. In addition, at OGA, the Emax amounted to 100% and the EC50 is 282 nM.
`CC(=O)Nc1cnc(N2CCC3(CCN(C(C)c4ccc5c(c4)OCO5)C3)C2)nc1` (stereo not shown) [Product 16]: in assay [1], the Emax was 79% and the IC50 is 2690 nM. In addition, at OGA, the Emax worked out at 19.5% and the EC50 is above 10000 nM.
